Results reported in US12011444B2, “N-substituted indole derivatives as PGE2 receptor modulators” (Idorsia Pharmaceuticals Ltd, priority 2015, dated 2024).
pIC50: −log10 of the molar value.

Assays:
EP4 = EP4 (Homo sapiens (Human), UniProt P35408); test: hEP4 cAMP assay (BT549 breast cancer cells, HTRF cAMP); type: cell-based; settings: antagonistic activity; mean values where measured multiple times
Protocol: Plate is pre-incubated 45 minutes at room temperature. Subsequently, 2.5 microliters of PGE2 (final conc. 6 nM) are transferred into the assay plate. Plate is incubated 30 minutes at room temperature.

EP2 = EP2 (Homo sapiens (Human), UniProt P43116);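 further: antagonism of PGE2-stimulated cAMP accumulation in SF295 human glioblastoma cells with endogenous EP2, cAMP read by HTRF, expressed relative to DMSO control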
EP2, sequence (P43116 whole entry): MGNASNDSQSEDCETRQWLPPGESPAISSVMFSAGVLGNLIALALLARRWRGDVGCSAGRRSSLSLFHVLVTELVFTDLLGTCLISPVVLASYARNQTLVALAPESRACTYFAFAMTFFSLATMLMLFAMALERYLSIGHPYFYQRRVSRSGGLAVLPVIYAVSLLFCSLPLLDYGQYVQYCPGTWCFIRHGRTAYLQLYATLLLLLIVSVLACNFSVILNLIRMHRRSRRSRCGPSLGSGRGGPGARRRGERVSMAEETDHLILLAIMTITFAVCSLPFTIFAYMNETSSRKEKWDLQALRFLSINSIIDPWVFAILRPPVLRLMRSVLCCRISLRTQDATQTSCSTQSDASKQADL

EP4, sequence (P35408 whole entry): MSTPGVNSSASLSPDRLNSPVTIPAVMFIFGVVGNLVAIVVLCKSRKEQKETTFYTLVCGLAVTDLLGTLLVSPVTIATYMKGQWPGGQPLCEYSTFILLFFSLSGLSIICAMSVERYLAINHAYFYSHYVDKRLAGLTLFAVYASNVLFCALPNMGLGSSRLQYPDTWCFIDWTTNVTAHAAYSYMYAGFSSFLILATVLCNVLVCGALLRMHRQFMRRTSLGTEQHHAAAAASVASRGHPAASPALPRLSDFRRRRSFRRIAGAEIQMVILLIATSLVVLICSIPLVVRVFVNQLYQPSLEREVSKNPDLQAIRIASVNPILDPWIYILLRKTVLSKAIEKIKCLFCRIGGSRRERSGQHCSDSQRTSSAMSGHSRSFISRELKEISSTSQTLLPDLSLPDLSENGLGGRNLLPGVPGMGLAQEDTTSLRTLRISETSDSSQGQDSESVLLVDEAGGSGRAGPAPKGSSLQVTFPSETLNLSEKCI

pIC50 (EP4) | pIC50 (EP2) | SMILES
6.09 | 7.77 | Cc1cc2c(F)c(F)cc(Cl)c2n1CCNc1cc(-c2ccc(C(=O)O)c(SC(C)C)c2)ncn1 [compound 500]
6.09 | 6.79 | CCS(=O)(=O)Nc1cc(-c2cc(NCCn3c(C)cc4c(C)ccc(F)c43)ncn2)ccc1C(=O)O [compound 602]
6.76 | 7.57 | COc1ccc(Cl)c2c1cc(C)n2CCNc1cc(-c2ccc(C(=O)O)c(CC(C)C)c2)ncn1 [compound 536]
7.07 | 8.30 | COc1ccc(F)c2c1cc(C)n2CCNc1cc(-c2ccc(C(=O)O)c(OCC(C)C)c2)ncn1 [compound 616]
8.05 | 8.52 | COc1cc(F)cc2c1cc(C)n2CCNc1cc(-c2cc(OC(C)C)c(C(=O)O)s2)ncn1 [compound 676]
7.82 | 7.39 | COc1cc(F)cc2c1cc(C#N)n2CCNc1cc(-c2ccc(C(=O)O)c(CC(C)C)c2)ncn1 [compound 603]
6.83 | 7.47 | Cc1cc(F)cc2c1cc(C)n2CCNc1cc(-c2ccc(C(=O)O)c(CC(C)C)c2)ncn1 [compound 422]
6.47 | 7.22 | Cc1cc(Cl)cc2c1cc(C)n2CCNc1cc(-c2ccc(C(=O)O)c(CC(C)C)c2)ncn1 [compound 421]
6.72 | 7.29 | CCOc1cc(-c2cc(NCCn3c(C)cc4c(C)cc(F)c(F)c43)ncn2)ccc1C(=O)O [compound 431]
6.32 | 7.77 | CCNc1cc(-c2cc(NCCn3c(C)cc4c(F)ccc(OC)c43)ncn2)ccc1C(=O)O [compound 399]
6.20 | 7.20 | CCOc1cc(-c2cc(NCCn3c(C)cc4c(OC)cc(F)cc43)nc(C)n2)ccc1C(=O)O [compound 492]
6.71 | 7.92 | COc1ccc(Cl)c2c1cc(C)n2CCNc1cc(-c2ccc(C(=O)O)c(OCC(C)C)c2)ncn1 [compound 614]
6.04 | 7.24 | CCOc1cc(-c2cc(NCCn3c(C)cc4c(C)cc(F)cc43)nc(C)n2)ccc1C(=O)O [compound 440]
6.49 | 7.80 | COc1cc(F)cc2c1cc(C)n2CCNc1cc(-c2ccc(C(=O)O)c(OC(F)(F)F)c2)ncn1 [compound 604]
6.11 | 7.04 | COc1cc(F)cc2c1cc(C)n2CCNc1cc(-c2ccc3oc(C)nc3c2)ncn1 [compound 687]
6.75 | 7.33 | Cc1cc(F)cc2c1cc(C)n2CCNc1cc(-c2ccc(-c3csc(C(=O)O)n3)cc2)ncn1 [compound 544]

Second part, the compound before the results:

SMILES | pIC50 (EP4) | pIC50 (EP2)
Cc1ccc(Cl)c2c1cc(C)n2CCNc1cc(-c2ccc(C(=O)O)c(S/C=C/F)c2)ncn1 [Example 788, 4-{6-[2-(7-Chloro-2,4-dimethyl-indol-1-yl)-ethylamino]-pyrimidin-4-yl}-2-((E)-2-fluoro-vinylsulfanyl)-benzoic acid] | 6.03 | 7.31
CCOc1cc(-c2cc(NCCn3c(C)cc4c(OC)cccc43)ncn2)cc(Cl)c1C(=O)O [compound 599] | 6.71 | 7.89
COc1cc(F)cc2c1cc(C)n2CCNc1cc(-c2ccc3ccncc3c2)ncn1 [compound 728] | 6.96 | 7.44
COc1cc(F)cc2c1cc(C)n2CCNc1cc(-c2ccc3[nH]c(C(F)(F)F)nc3c2)ncn1 [compound 640] | 6.37 | 6.32
COc1cc(F)c(F)c2c1cc(C)n2CCNc1cc(-c2ccc(C(=O)O)c(OC(F)(F)F)c2)ncn1 [compound 636] | 6.59 | 7.17
COc1cc(F)cc2c1cc(C)n2CCNc1cc(-c2ccc(-c3cc(N(C)C)ncn3)cc2)ncn1 [Example 763, 6-(4-(6-((2-(6-Fluoro-4-methoxy-2-methyl-1H-indol-1-yl)ethyl)amino)pyrimidin-4-yl)phenyl)-N,N-dimethylpyrimidin-4-amine] | 6.86 | 7.60
COc1ccc(F)c2c1cc(C)n2CCNc1cc(-c2ccc3c(ccn3C)c2)ncn1 [compound 706, [2-(7-Fluoro-4-methoxy-2-methyl-indol-1-yl)-ethyl]-[6-(1-methyl-1H-indol-5-yl)-pyrimidin-4-yl]-amine] | 7.26 | 8.00
CCc1cc(-c2cc(NCCn3c(C)cc4c(OC)ccc(F)c43)ncn2)cc(F)c1C(=O)O [compound 437] | 6.70 | 7.82
COc1cccc2c1cc(C)n2CCNc1cc(-c2ccc(C(=O)O)c(NCC(F)(F)F)c2)ncn1 [compound 568, 4-{6-[2-(4-Methoxy-2-methyl-indol-1-yl)-ethylamino]-pyrimidin-4-yl}-2-(2,2,2-trifluoro-ethylamino)-benzoic acid] | 6.93 | 9.00
CCOc1cc(-c2cc(NCCn3c(Cl)cc4c(C)ccc(F)c43)ncn2)ccc1C(=O)O [Example 779, 4-{6-[2-(2-Chloro-7-fluoro-4-methyl-indol-1-yl)-ethylamino]-pyrimidin-4-yl}-2-ethoxy-benzoic acid] | 6.62 | 7.55
Cc1cc2c(Cl)ccc(Cl)c2n1CCNc1cc(-c2ccc(C(=O)O)c(SC3CCC3)c2)ncn1 [compound 453, 2-Cyclobutylsulfanyl-4-{6-[2-(4,7-dichloro-2-methyl-indol-1-yl)-ethylamino]-pyrimidin-4-yl}-benzoic acid] | 6.04 | 7.51
CCCOc1cc(-c2cc(NCCn3c(C)cc4c(OC)cc(F)c(F)c43)ncn2)cc(F)c1C(=O)O [compound 637] | 7.27 | 7.60
Cc1cc2ccccc2n1CCNc1cc(-c2ccc(-c3nnn[nH]3)c(O)c2)ncn1 [Example 789, 5-{6-[2-(2-Methyl-indol-1-yl)-ethylamino]-pyrimidin-4-yl}-2-(1H-tetrazol-5-yl)-phenol] | 6.03 | 8.22
CCOc1cc(-c2cc(NCCn3c(C)cc4c(C(F)(F)F)ccc(F)c43)ncn2)ccc1C(=O)O [compound 543] | 6.60 | 6.00
CCOc1cc(-c2cc(NCCn3c(C)cc4c(C)ccc(F)c43)ncn2)ccc1CNCCOC [compound 562] | 6.26 | 6.44
COc1ccc(F)c2c1cc(C)n2CCNc1cc(-c2ccc(-c3nnc(C)o3)c(F)c2)ncn1 [compound 455] | 6.81 | 7.13
COc1cc(F)cc2c1cc(C)n2CCNc1cc(-c2ccc(-c3cnccn3)cc2)ncn1 [Example 750, [2-(6-Fluoro-4-methoxy-2-methyl-indol-1-yl)-ethyl]-[6-(4-pyrazin-2-yl-phenyl)-pyrimidin-4-yl]-amine] | 7.04 | 7.80

SMILES | pIC50 (EP4) | pIC50 (EP2)
CCOc1cc(-c2cc(NCCn3c(Cl)cc4c(OC)ccc(F)c43)ncn2)ccc1C(=O)O [Example 776, 4-{6-[2-(2-Chloro-7-fluoro-4-methoxy-indol-1-yl)-ethylamino]-pyrimidin-4-yl}-2-ethoxy-benzoic acid] | 7.36 | 8.22
Cc1cnoc1-c1ccc(-c2cc(NCCn3c(C)cc4c(C)ccc(F)c43)ncn2)cc1 [compound 735] | 6.21 | 7.03
CCOc1cc(-c2cc(NCCn3c(C)cc4c(OC)cc(F)c(F)c43)ncn2)sc1C(=O)O [compound 408] | 8.52 | 8.40
Cc1cc2ccccc2n1CCNc1cc(-c2ccc3c(=O)[nH][nH]c3c2)ncn1 [Example 772, 6-{6-[2-(2-Methyl-indol-1-yl)-ethylamino]-pyrimidin-4-yl}-1,2-dihydro-indazol-3-one] | 6.50 | 7.82
CCOc1cc(-c2cc(NCCn3c(Cl)cc4c(Cl)ccc(F)c43)ncn2)ccc1C(=O)O [Example 778, 4-{6-[2-(2,4-Dichloro-7-fluoro-indol-1-yl)-ethylamino]-pyrimidin-4-yl}-2-ethoxy-benzoic acid] | 6.76 | 7.82
COc1cccc2c1cc(C)n2CCNc1cc(-c2ccc3c(c2)CN(CC(C)C)C3=O)ncn1 [compound 462] | 6.07 | 7.21
COc1cc(F)cc2c1cc(C)n2CCNc1cc(-c2cccc(-n3cccn3)c2)ncn1 [compound 726] | 6.41 | 7.39
CCCCOc1cc(-c2cc(NCCn3c(C)cc4c(OC)ccc(Cl)c43)ncn2)ccc1C(=O)O [compound 613] | 6.66 | 8.40
CCNc1cc(-c2cc(NCCn3c(C)cc4c(OC)ccc(F)c43)ncn2)ccc1C(=O)O [compound 397] | 7.70 | 9.00
COc1cc(F)cc2c1cc(C)n2CCNc1cc(-c2ccc(-c3ncc(C)n3C)cc2)ncn1 [Example 752, {6-[4-(1,5-Dimethyl-1H-imidazol-2-yl)-phenyl]-pyrimidin-4-yl}-[2-(6-fluoro-4-methoxy-2-methyl-indol-1-yl)-ethyl]-amine] | 6.20 | 7.07
Cc1noc(-c2ccc(-c3cc(NCCn4c(C)cc5c(C)ccc(F)c54)ncn3)cc2)c1C(=O)O [compound 477] | 6.24 | 6.91
COc1cc(F)cc2c1cc(C)n2CCNc1cc(-c2ccc(-c3cnc(N)o3)cc2)ncn1 [compound 572] | 7.35 | 7.74
CCOc1cc(-c2cc(NCCn3c(Cl)cc4c(OC)ccc(Cl)c43)ncn2)ccc1C(=O)O [Example 775, 4-{6-[2-(2,7-Dichloro-4-methoxy-indol-1-yl)-ethylamino]-pyrimidin-4-yl}-2-ethoxy-benzoic acid] | 6.69 | 8.00
CCCCOc1cc(-c2cc(NCCn3c(C)cc4c(OC)cc(F)cc43)ncn2)sc1C(=O)O [compound 672] | 8.52 | 9.00
CCOc1cc(-c2cc(NCCn3c(C)cc4c(OC)ccc(Cl)c43)ncn2)ccc1-c1nnn[nH]1 [compound 662] | 6.87 | 8.10
Cc1cc(F)c(F)c2c1cc(C)n2CCNc1cc(-c2ccc(-c3noc(=O)[nH]3)cc2)ncn1 [compound 680] | 6.95 | 7.25
CCOc1cc(-c2cc(NCCn3c(C)cc4c(OC)ccc(F)c43)ncn2)ccc1CNCC(C)C [compound 586] | 6.06 | 6.14
